From patent US10883142B2, “Risk assessment for phenytoin-induced adverse drug reactions” (priority 2011, dated 2021)

Columns and labels:
[1] = Phenytoin plasma concentration during ADR onset, HPLC analysis of patients' plasma; format: in vivo, human
Description: In this study, the phenytoin concentrations during ADR onset were determined from patients' plasma by HPLC analysis and estimated by non-linear pharmacokinetics formula: […]
Therapeutic levels of phenytoin are usually between 10-20 μg/ml. […] We also compared the phenytoin plasma levels of patients who carried CYP2Cs variants. […] Defective metabolism of phenytoin may increase the risk of drug accumulation, and leads to its risk to induce severe hypersensitivity reactions, such as SJS/TEN and DRESS.

[2] = patients who received phenytoin; cited from earlier work
[3] = normal therapeutic range, plasma; cited from earlier work

phenytoin concentrations ([1]; 5 phenytoin-ADRs patients who carry CYP2C9*3 variant (of 23 analysed)): higher than 20 μg/ml
SMILES: O=C1NC(=O)C(c2ccccc2)(c2ccccc2)N1 [phenytoin]
phenytoin plasma levels ([1]; patients with phenytoin-SJS/TEN, P=0.006 vs. tolerant control): 40 to 50 µg/mL
phenytoin plasma levels ([1]; tolerant control patients, after taking drug): 5 to 15 µg/mL
patients who developed hypersensitivity reactions [2]: more than 19%
therapeutic levels of phenytoin [3]: 10 to 20 µg/mL
